In general, EC50 refers to the concentration at which the effect is half-maximal.

Here are results for four molecules from patent publication EP3636781A1, “NOVEL SCREENING ASSAYS FOR IDENTIFYING COMPOUNDS RESERSING HIV-1 LATENCY” (Heinrich-Pette-Institut Leibniz-Institut für Experimentelle …, priority 2018, dated 2020).

One data set has as its system J89. Nature of the data set: SM111 treatment of latent J89 cells, latency reversal as HIV-1-GFP+ cells. The class given is cell-based. The settings on record: 100 µM, several consecutive passages, HIV-1-GFP+ cells by flow cytometry (Figure 7A). How it is done:
All results were depicted as medians ± IQR. […].
For SM111 treatment, the HIV-1 latent Jurkat cell line, J89, was treated with SM111 compound, a Vpu-inhibitor, SM113, a negative compound, and DMSO for several consecutive passages. 1x10^6 cells were plated and treated with 100 µM of all compounds for 4 days. Then, one fourth (25%) of the cells were passaged into new media containing the respective treatment and the rest were used to measure HIV-1 latency reactivation (GFP) and cell viability. An untreated control well was kept as internal negative control.
(In general: In flow cytometry, cells or beads pass a laser one at a time.)

For data set [1], the system named is J89Δvpu cells. The settings on record: 96 hrs, proportion of Zombie NIR-/activated Caspase 3- cells against concentration.
Description: (§1) Latency reactivation was traced by quantifying the proportion of HIV-1-GFP+ cells. […] The treatment of J89Δvpu cells with increasing concentrations of sulfasalazine was measured at 96 hrs. Cells shown are gated on viable cells (Zombie NIR- gate) and on negative activated caspase 3 to exclude any apoptotic or dead cell. […] (B) NF-κB inhibitor, sulfasalazine, was added at several concentrations to the J89Cas9AVpu cell line and the proportion of GFP- cells (latent) was measured by flow cytometry at 96 hrs. (gating strategy: (A): FSC/SSC → Zombie NIR- → HIV-1-GFP. (B) FSC/SSC → Zombie NIR negative → Caspase 3 active negative → HIV-1-GFP).
The subject of data set [2] is J89Δvpu cells. Nature of the data set: cells. The settings on record: 96 h, read-out: EC50 for HIV-1 latency re-establishment.
Description: as §1
The next data set concerns the target NF-κB (human) (UniProt Q04206). Nature of the data set: cell-based or functional assay.

NF-κB (human), sequence (Q04206 whole entry): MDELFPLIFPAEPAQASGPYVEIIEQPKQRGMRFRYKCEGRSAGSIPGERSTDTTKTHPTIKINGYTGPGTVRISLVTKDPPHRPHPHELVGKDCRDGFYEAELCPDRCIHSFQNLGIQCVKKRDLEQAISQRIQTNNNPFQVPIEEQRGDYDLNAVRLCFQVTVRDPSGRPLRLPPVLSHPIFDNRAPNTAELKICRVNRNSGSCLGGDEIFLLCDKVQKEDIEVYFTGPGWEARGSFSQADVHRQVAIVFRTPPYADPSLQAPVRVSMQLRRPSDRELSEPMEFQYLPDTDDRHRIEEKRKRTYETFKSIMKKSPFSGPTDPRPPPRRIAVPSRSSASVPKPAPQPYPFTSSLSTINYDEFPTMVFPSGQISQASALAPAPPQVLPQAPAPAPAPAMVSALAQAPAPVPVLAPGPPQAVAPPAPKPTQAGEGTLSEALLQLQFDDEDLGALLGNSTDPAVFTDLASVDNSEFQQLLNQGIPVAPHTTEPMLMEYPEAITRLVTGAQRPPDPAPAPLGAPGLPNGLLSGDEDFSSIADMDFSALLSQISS

Turning to `N=C(N)NC(=O)c1cccnc1N1CCCCCC1` [SM111, 1-(2-(azepan-1-yl)nicotinoyl)guanidine], in the data set on J89, the “reversal of HIV-1 latency” value is “able to reverse HIV-1 latency”.
`O=C(O)c1cc(/N=N/c2ccc(S(=O)(=O)Nc3ccccn3)cc2)ccc1O` [sulfasalazine] yielded an LD50 in the data set on J89Δvpu cells [1] above 0.50 mM. Also, in the data set on J89Δvpu cells [2], the EC50 was 400 µM.
With HIV-1 89.6 Vpu R45K mutant, the activation of NF-κB in a dual luciferase reporter assay (HEK293T, constitutively active IKKβ, increasing amounts of Vpu expression plasmid), EC50 with NF-κB (human) was above 38 ng.
On the same count and under the same terms, the result for “HIV-1 Vpu protein (strain 89.6), wild type” reads 5.2 ng.
